Source: PMC11120720, “Linking Variability in Phytochemical Composition with Safety Profile of Thymus carnosus Boiss. Extracts: Effect of Major Compounds and Evaluation of Markers of Oxidative Stress and Cell Death” (International Journal of Molecular Sciences, 2024)
Like-named read-outs stand apart in the source and are kept apart here.

Experiments:
Caco-2 cells [1] = conditions: cited from earlier work
HepG2 cells [2] = conditions: cited from earlier work
Caco-2 cells [3] = assay: Annexin V-FITC/PI apoptosis/necrosis, Caco-2; assay type: cell-based; conditions: compound 50 µM, 24 h
Protocol: (§1) The cells were then equally divided for each assay.
(§2) For the assessment of apoptotic/necrotic cell death, an Annexin V-FITC (Thermo Fisher Scientific, Waltham, MA, USA) and propidium iodide (PI; Merck, Darmstadt, Germany) double-staining assay was used to evaluate the apoptotic/necrotic cell death induced by T. carnosus extracts and by individual phytochemicals, as described previously. Briefly, after detachment and washing, the supernatant was discarded, and 200 µL of Annexin V-FITC (1:200 dilution in Annexin-binding buffer [10 mM HEPES sodium salt, 150 mM NaCl, 5 mM KCl, 5 mM MgCl2, and 1.8 mM CaCl2; pH = 7.4]) was added. Cells were incubated for 20 min (room temperature, in the dark). After incubation, 5 µL of propidium iodide (PI; 50 µg/mL) was added, the cells were incubated for 5 min on ice (in the dark), and the data were acquired.

HepG2 cells [4] = assay: Cell cycle arrest (PI, flow cytometry), HepG2; assay type: cell-based, human; conditions: compound 50 µM, 24 h
Protocol: as §1
(§3) Cell cycle arrest assessment was performed as described in [1]. Cells were processed as described above until cell detachment and centrifuged, after which the second washing step was performed with ice-cold PBS (0 °C). After centrifugation, the supernatant was discarded, and cells were fixed with 500 µL of ethanol:PBS solution (70:30, % v/v, previously cooled at −20 °C) for at least 4 h at −20 °C. After fixation, two washing cycles were performed: the first with ice-cold PBS (0 °C) and the second with room-temperature PBS, followed by the addition of 200 µL of a PBS solution containing PI (50 µg/mL), RNAse A (50 µg/mL), and Triton X-100 (0.1%). Cells were incubated for 30 min at 37 °C, and then cells were washed once with PBS to remove the staining solution. After resuspension in PBS, the data were acquired.

HepG2 cells [5] = assay: Intracellular ROS (DCFDA, flow cytometry), HepG2; assay type: cell-based, human; conditions: compound 50 µM, 24 h
Protocol: as §1
(§4) Intracellular ROS level assessment was performed as described by Silva et al., 2022 [65], using dichlorodihydrofluorescein diacetate (DCFDA). Cells obtained in the previous step were centrifuged, the supernatant discarded, and 200 µL of DCFDA (10 µM in FBS-free DMEM) was added. Cells were incubated for 45 min (37 °C, in the dark), washed to remove excess probe, and resuspended in PBS for data acquisition.

Caco-2 cells [6] = assay: Cell cycle arrest (PI, flow cytometry), Caco-2; assay type: cell-based; conditions: compound 50 µM, 24 h
Protocol: as §1, §3

[7] = tested on: nasopharyngeal carcinoma cells NPC-039; set-up: method as in PMID 34165247; conditions: cited from earlier work
HepG2 cells [8] = assay: Annexin V-FITC/PI apoptosis/necrosis, HepG2; assay type: cell-based, human; conditions: compound 50 µM, 24 h
Protocol: as §1, §2

Caco-2 cells [9] = assay: Alamar Blue cell viability assay, Caco-2; assay type: cell-based, human; conditions: for IC50: Homo sapiens
Protocol: (§5) The safety profile of T. carnosus AD and HE extracts was evaluated in Caco-2 and HepG2 cells using an Alamar Blue® (Invitrogen; Alfagene, Lisboa, Portugal) assay. An initial screening was performed for all extracts at concentrations ranging between 100 and 1000 µg/mL. Due to the higher toxicity of the HE extracts, which was previously described for various extracts of Thymus species using the same extraction methods (e.g., T. mastichina and Thymus zygis), a different set of concentrations was used for the HE extracts (between 100 and 300 µg/mL for Caco-2 cells and 50 and 150 µg/mL for HepG2 cells). Figure 1 presents the data related to the cell viability assays in Caco-2 (panels A–E) and HepG2 cells (panels F–J) exposed to T. carnosus extracts, as indicated.
(§6) The safety profile of T. carnosus extracts was assessed in Caco-2 and HepG2 cells. Caco-2 (human colon adenocarcinoma cell line) were obtained from CLS (Cell Lines Service, Eppelheim, Germany), and HepG2 (human hepatocellular carcinoma cell line) were obtained from ATCC (American Type Culture Collection, Manassas, VA, USA).
(§7) Cell culture maintenance, handling, subculturing, and seeding were performed as described by Silva et al., 2020 [5], and cell viability was assessed using an Alamar Blue® assay, as described by Andreani et al., 2014 [64]. Concentrations ranged between 100 and 1000 µg/mL for AD extracts in both cell lines and 100 to 300 µg/mL or 50 to 150 µg/mL for HE extracts in Caco-2 and HepG2 cells, respectively. The effect of individual compounds on cell viability was assessed for concentrations ranging from 50 to 300 µM. All test solutions were prepared by diluting the samples in FBS-free culture media from the stock solutions described in Section 3.2, just prior to being used.
(§8) The results are presented as mean ± SD of at least three independent assays. The calculation of IC50 values was performed as described by Silva et al., 2020 [5]. Data analysis, graphical design, and statistical analysis were performed using Microsoft Office Excel (Professional Plus 2019; Microsoft Corporation, Washington, DC, USA) and GraphPad Prism (Version 8; GraphPad Software Inc., San Diego, CA, USA). Flow cytometry data analysis was performed using BD Accuri™ C6 Software, version 1.0.264.21 (Becton Dickinson, San Diego, CA, USA).

[10] = tested on: nasopharyngeal carcinoma cells NPC-BM; set-up: method as in PMID 34165247; conditions: cited from earlier work
HepG2 cells [11] = assay: Alamar Blue cell viability assay, HepG2; assay type: cell-based, human; conditions: for IC50: Homo sapiens
Protocol: as §5, §6, §7, §8

[12] = tested on: hepatocarcinoma cells (HuH7); set-up: method as in PMID 20415421; conditions: 20-80 µM; cited from earlier work
Caco-2 cells [13] = assay: Intracellular ROS (DCFDA, flow cytometry), Caco-2; assay type: cell-based; conditions: compound 50 µM, 24 h
Protocol: as §1, §4

[14] = set-up: method as in PMID 31344882, PMID 26042707; conditions: cited from earlier work
HepG2 cells [15] = assay: Mitochondrial membrane potential (JC-1, flow cytometry), HepG2; assay type: cell-based, human
Protocol: (§9) Flow cytometry was used to analyze the effect of T. carnosus extracts on intracellular ROS, modulation of mitochondrial membrane potential (MMP), cell cycle arrest, and apoptotic/necrotic cell death induction.
(§10) Both one- and two-color assays were performed using a BD Accuri™ C6 cytometer (Becton Dickinson, Franklin Lakes, NJ, USA), and 10,000 gated events were collected from each sample [1]. For flow cytometry assays, cells were handled as described previously but seeded at a density 5 × 10^4 cells/mL (750 μL/well) in 12-well plates. Caco-2 and HepG2 cells were incubated for 24 h with the extracts (100 µg/mL) or individual phytochemicals (50 µM) diluted in FBS-free culture media h. After incubation, test solutions were removed; the cells were washed with PBS and detached from the plates using trypsin-EDTA. Once transferred to centrifuge tubes, the cells were centrifuged (bench micro-centrifuge; 3000 rpm; 3 min), the supernatant was discarded, and a new wash cycle was performed. The cells were then equally divided for each assay. A negative control was used in all assays consisting of nonexposed cells incubated only with culture media.
(§11) Mitochondrial membrane potential (MMP) was evaluated using 5,5″,6,6″-tetrachloro-1,1″,3,3″-tetraethylbenzimidazolylcarbocyanineiodide (JC-1). Cells were processed as described for DCFDA but incubated with 200 µL of JC-1 (2 µM, in FBS-free DMEM) for 20 min (37 °C, in the dark).

Caco-2 cells [16] = conditions: positive control, 5 µM
Protocol: as §9, §10, §11

[17] = tested on: normal and tumoral human nasopharyngeal cells; set-up: method as in PMID 33277860; conditions: 24 h; cited from earlier work
[18] = tested on: human lung cancer (A549) cells; conditions: cited from earlier work
[19] = Alamar Blue cell viability assay, Caco-2; assay type: cell-based, human; conditions: human, Caco-2; 48 h; concentration not given; read-out: cell viability, Caco-2 (% of control)
Protocol: as §5, §6, §7, §8

[20] = Alamar Blue cell viability assay, HepG2; assay type: cell-based, human; conditions: human, HepG2 cells, concentration not given
Protocol: as §5, §6, §7, §8

SMILES: O=c1c(O[C@@H]2O[C@H](CO)[C@@H](O)[C@H](O)[C@H]2O)c(-c2ccc(O)c(O)c2)oc2cc(O)cc(O)c12 [quercetin-3-O-glucoside]
- cytotoxicity in Caco-2 cells relative to quercetin aglycone (Caco-2 cells [1]): lower cytotoxicity in Caco-2 cells than aglycone

SMILES: O=c1cc(-c2ccc(O)c(O)c2)oc2cc(O[C@@H]3O[C@H](CO)[C@@H](O)[C@H](O)[C@H]3O)cc(O)c12 [Luteolin-7-O-glucoside, luteolin-7-O-glucoside]
- IC50 (HepG2 cells [2]; read-out: concentration reducing HepG2 cells' viability to ~50%): 44.6 µM
- cell death induction, Caco-2 (Caco-2 cells [3]): did not induce cell death
- cell cycle effect, HepG2 (HepG2 cells [4]): induced cell cycle arrest in both cell lines but in different phases
- change in intracellular ROS, HepG2 (HepG2 cells [5]): significant (p < 0.05) increase in intracellular HepG2 ROS levels
- cell cycle effect, Caco-2 (Caco-2 cells [6]): cell cycle arrest in G0/G1
- MMP modulation, NPC-039 ([7]; 20, 40 and 80 µM): MMP depolarization
- cell cycle effect, NPC-039 [7]: cell cycle arrest in the S and G2/M phases
- IC50 (Caco-2 cells [1]; read-out: concentration reducing Caco-2 cell viability to 50% of control, 48 h): ~55 µM
- cell death induction, HepG2 (HepG2 cells [8]): did not induce cell death
- concentrations reducing Caco-2 cell viability (p < 0.05) (Caco-2 cells [9]; Caco-2): ≥ 75 µM
- MMP modulation, NPC-BM ([10]; 20, 40 and 80 µM): MMP depolarization
- cell cycle effect, NPC-BM [10]: cell cycle arrest in the S and G2/M phases
- reduction in HepG2 cell viability (HepG2 cells [11]; 300 µM, 48 h): ~ 30%
- concentrations giving significant effect on HepG2 cell viability (HepG2 cells [11]; 48 h exposure): ≥ 100 µM

SMILES: O=C(O)[C@H]1O[C@@H](Oc2c(-c3ccc(O)c(O)c3)oc3cc(O)cc(O)c3c2=O)[C@H](O)[C@@H](O)[C@@H]1O [quercetin-3-O-glucuronide]
- cytotoxicity in Caco-2 cells relative to quercetin aglycone (Caco-2 cells [1]): lower cytotoxicity in Caco-2 cells than aglycone

SMILES: CC1(C)CC[C@]2(C(=O)O)CC[C@]3(C)C(=CC[C@@H]4[C@@]5(C)CC[C@H](O)C(C)(C)[C@@H]5CC[C@]43C)[C@@H]2C1 [Oleanolic acid, oleanolic acid]
- concentrations reducing HepG2 cell viability (HepG2 cells [2]; 48 h): ≥ 2 µM
- IC50 (HepG2 cells [2]; read-out: IC50, HepG2 cells, 72 h): > 100 µM
- percentage of cells in late apoptosis, Caco-2 (Caco-2 cells [3]): ~ 29%
- percentage of cells in necrosis, Caco-2 (Caco-2 cells [3]): ~ 50%
- change in intracellular ROS, HepG2 (HepG2 cells [5]): significant (p < 0.05) increase in intracellular HepG2 ROS levels
- cell cycle effect, Caco-2 (Caco-2 cells [6]): cell cycle arrest in G0/G1
- MMP modulation, HuH7 [12]: reduce MMP
- change in intracellular ROS, Caco-2 (Caco-2 cells [13]): increase in ROS
- lipophilicity [14]: high lipophilicity
- water solubility [14]: poor water solubility
- concentrations reducing Caco-2 cell viability (Caco-2 cells [1]; 24 h): ≥ 5 µM
- cell death induction, HepG2 (HepG2 cells [8]): slight reduction in the percentage of healthy cells
- IC50 (Caco-2 cells [9]; Caco-2, 24 h exposure, read-out: IC50 (µM) - Caco-2 cells: 24 h): 78.5 ± 3.57 µM
- IC50 (Caco-2 cells [9]; Caco-2, 48 h exposure, read-out: IC50 (µM) - Caco-2 cells: 48 h): 45.9 ± 2.47 µM
- IC50 (HepG2 cells [11]; HepG2, 24 h exposure, read-out: IC50 (µM) - HepG2 cells: 24 h): 150 ± 7.66 µM

SMILES: COc1cc(/C=C/C(=O)CC(=O)/C=C/c2ccc(O)c(OC)c2)ccc1O [curcumin]
- MMP modulation, HepG2 (HepG2 cells [2]; 27-108 µM): mitochondrial membrane hyperpolarization in HepG2 cells, followed by depolarization

SMILES: N#CC(C#N)=NNc1ccc(OC(F)(F)F)cc1 [FCCP, carbonyl cyanide p-trifluoromethoxyphenylhydrazone]
- JC-1 FL2/FL1 ratio normalized by negative control, HepG2 (HepG2 cells [15]; positive control, 5 µM): 0.10 ± 0.01
- reduction in MMP, HepG2 (HepG2 cells [15]; positive control, 5 µM): ~ 90%
- JC-1 FL2/FL1 ratio normalized by negative control, Caco-2 (Caco-2 cells [16]): 0.06 ± 0.01
- reduction in MMP, Caco-2 (Caco-2 cells [16]): ~ 94%

SMILES: O=C1C[C@@H](c2ccc(O)c(O)c2)Oc2cc(O)cc(O)c21 [Eriodictyol, eriodictyol]
- cell death induction, Caco-2 (Caco-2 cells [3]): induced apoptosis and necrosis
- change in intracellular ROS, HepG2 (HepG2 cells [5]): significant (p < 0.05) increase in intracellular HepG2 ROS levels
- MMP modulation, HepG2 (HepG2 cells [15]; compound 50 µM, 24 h): hyperpolarization of the mitochondrial membrane
- change in intracellular ROS, Caco-2 (Caco-2 cells [13]): neither RA nor eriodictyol induced ROS increases
- concentrations inducing cytotoxicity, nasopharyngeal cells [17]: ≥ 5 µM
- cell death induction, HepG2 (HepG2 cells [8]): induced apoptosis and necrosis
- cell cycle effect, A549 [18]: cell cycle arrest in the G2/M phase
- concentrations reducing the MMP in A549 cells [18]: ≥ 25 µM
- viability at 48 h [19]: ~19%
- reduction of Caco-2 cell viability (Caco-2 cells [9]; 48 h, concentration not given): ~ 81%
- IC50 (Caco-2 cells [9]; Caco-2, 24 h, read-out: IC50 (µM) - Caco-2 cells: 24 h): 245 ± 13.7 µM
- IC50 (Caco-2 cells [9]; Caco-2, 48 h, read-out: IC50 (µM) - Caco-2 cells: 48 h): 82.5 µM
- viability at 24 h ([20]; 24 h): 56.9%
- viability at 48 h ([20]; 48 h): 43.2%
- IC50 (HepG2 cells [11]; HepG2, 24 h, read-out: IC50 (µM) - HepG2 cells: 24 h): > 300 µM
- IC50 (HepG2 cells [11]; HepG2, 48 h, read-out: IC50 (µM) - HepG2 cells: 48 h): 231 ± 23.2 µM
